# According to article PMC5218480 (PLoS ONE, 2017):
# Tested on: MV-4-11 cells
# Assay: Gene expression microarray analysis (Affymetrix PrimeView) and GSEA
# Type: cell-based, human
# Set-up: RFU PODN (11730768_x_at) / Fold change /veh PODN (11730768_x_at) / RFU LINC00158 (11744669_a_at) / Fold change /veh LINC00158 (11744669_a_at) / RFU DUSP10 (11751237_a_at) / Fold change /veh DUSP10 (11751237_a_at) / RFU ID3 (11757404_x_at) / Fold change /veh ID3 (11757404_x_at) / RFU PLEKHG5 (11737974_s_at) / Fold change /veh PLEKHG5 (11737974_s_at) / RFU LRRC4B (11730491_at) / Fold change /veh LRRC4B (11730491_at) / RFU GIMAP4 (11747438_a_at) / Fold change /veh GIMAP4 (11747438_a_at) / RFU KRT8 (11758183_x_at) / Fold change /veh KRT8 (11758183_x_at) / RFU CNN1 (11734310_a_at) / Fold change /veh CNN1 (11734310_a_at) / RFU VPS37D (11726825_at) / Fold change /veh VPS37D (11726825_at) / RFU C10orf10 (11716522_x_at) / Fold change /veh C10orf10 (11716522_x_at) / RFU KIR2DL2 /// KIR2DL4 /// KIR2DL5A /// KIR2DL5B /// KIR2DS1 /// KIR2DS2 /// KIR2DS3 /// KIR2DS4 /// KIR3DL3 /// KIR3DL3 /// KIR3DS1 (11738374_at) / Fold change /veh KIR2DL2 /// KIR2DL4 /// KIR2DL5A /// KIR2DL5B /// KIR2DS1 /// KIR2DS2 /// KIR2DS3 /// KIR2DS4 /// KIR3DL3 /// KIR3DL3 /// KIR3DS1 (11738374_at) / RFU C1QL1 (11718748_at) / Fold change /veh C1QL1 (11718748_at) / RFU TMPRSS4 (11747572_a_at) / Fold change /veh TMPRSS4 (11747572_a_at) / RFU HAMP (11756126_x_at) / Fold change /veh HAMP (11756126_x_at) / RFU RNFT2 (11725882_a_at) / Fold change /veh RNFT2 (11725882_a_at) / RFU NR4A2 (11747474_a_at) / Fold change /veh NR4A2 (11747474_a_at) / RFU ABCC12 (11746883_a_at) / Fold change /veh ABCC12 (11746883_a_at) / RFU TMEM136 (11760407_x_at) / Fold change /veh TMEM136 (11760407_x_at) / RFU CLDN22 /// WWC2 (11732394_at) / Fold change /veh CLDN22 /// WWC2 (11732394_at) / RFU HLA-DPB1 (11760878_x_at) / Fold change /veh HLA-DPB1 (11760878_x_at) / RFU SPINT1 (11716480_a_at) / Fold change /veh SPINT1 (11716480_a_at) / RFU GAP43 (11754022_s_at) / Fold change /veh GAP43 (11754022_s_at) / RFU A4GNT (11735810_at) / Fold change /veh A4GNT (11735810_at) / RFU PRB3 (11715151_x_at) / Fold change /veh PRB3 (11715151_x_at) / RFU TUBB4B (11761932_at) / Fold change /veh TUBB4B (11761932_at) / RFU CAPN14 (11732068_a_at) / Fold change /veh CAPN14 (11732068_a_at) / RFU TMCC2 (11721928_a_at) / Fold change /veh TMCC2 (11721928_a_at) / RFU IRGQ (11745062_a_at) / Fold change /veh IRGQ (11745062_a_at) / RFU FAM174B (11720279_a_at) / Fold change /veh FAM174B (11720279_a_at) / RFU TMPRSS4 (11748680_a_at) / Fold change /veh TMPRSS4 (11748680_a_at) / RFU FAM212B (11763350_a_at) / Fold change /veh FAM212B (11763350_a_at) / RFU PLEKHG5 (11743358_a_at) / Fold change /veh PLEKHG5 (11743358_a_at) / RFU ZSCAN30 (11745921_a_at) / Fold change /veh ZSCAN30 (11745921_a_at) / RFU CMKLR1 (11741424_a_at) / Fold change /veh CMKLR1 (11741424_a_at) / RFU LOC101060620 /// MAPK8IP1 (11723275_at) / Fold change /veh LOC101060620 /// MAPK8IP1 (11723275_at) / RFU SPTSSB (11747773_x_at) / Fold change /veh SPTSSB (11747773_x_at) / RFU PRSS12 (11739890_at) / Fold change /veh PRSS12 (11739890_at) / RFU BIN1 (11741810_x_at) / Fold change /veh BIN1 (11741810_x_at) / RFU WNT11 (11732464_a_at) / Fold change /veh WNT11 (11732464_a_at) / RFU C10orf10 (11716521_a_at) / Fold change /veh C10orf10 (11716521_a_at) / RFU C5orf56 (11738089_at) / Fold change /veh C5orf56 (11738089_at) / RFU CYB561 (11721691_x_at) / Fold change /veh CYB561 (11721691_x_at) / RFU ANKRD19P (11752326_a_at) / Fold change /veh ANKRD19P (11752326_a_at) / RFU OR2T12 /// OR2T33 /// OR2T8 (11738714_s_at) / Fold change /veh OR2T12 /// OR2T33 /// OR2T8 (11738714_s_at) / RFU VCAN (11748164_a_at) / Fold change /veh VCAN (11748164_a_at) / RFU JSRP1 (11732532_at) / Fold change /veh JSRP1 (11732532_at) / RFU KRTAP10-11 (11738290_x_at) / Fold change /veh KRTAP10-11 (11738290_x_at) / RFU MYO3A (11730013_a_at) / Fold change /veh MYO3A (11730013_a_at) / RFU EBF3 (11725865_a_at) / Fold change /veh EBF3 (11725865_a_at) / RFU CAMK2N1 (11719241_x_at) / Fold change /veh CAMK2N1 (11719241_x_at) / RFU C5orf56 (11738088_a_at) / Fold change /veh C5orf56 (11738088_a_at) / RFU OLFML3 (11715873_a_at) / Fold change /veh OLFML3 (11715873_a_at) / RFU LOC100653217 /// NTM (11731650_a_at) / Fold change /veh LOC100653217 /// NTM (11731650_a_at) / RFU MAPK11 (11762145_a_at) / Fold change /veh MAPK11 (11762145_a_at) / RFU FIZ1 (11724087_x_at) / Fold change /veh FIZ1 (11724087_x_at) / RFU OASL (11726364_x_at) / Fold change /veh OASL (11726364_x_at) / RFU SOX15 (11748057_x_at) / Fold change /veh SOX15 (11748057_x_at) / RFU CD79A (11719716_a_at) / Fold change /veh CD79A (11719716_a_at) / RFU HIST1H1D (11736915_at) / Fold change /veh HIST1H1D (11736915_at) / RFU CASKIN2 (11723855_a_at) / Fold change /veh CASKIN2 (11723855_a_at) / RFU LOC730098 (11760151_x_at) / Fold change /veh LOC730098 (11760151_x_at) / RFU OR4N2 (11742367_at) / Fold change /veh OR4N2 (11742367_at) / RFU PRRT2 (11749266_a_at) / Fold change /veh PRRT2 (11749266_a_at) / RFU SNX32 (11753110_a_at) / Fold change /veh SNX32 (11753110_a_at) / RFU CDHR5 (11726645_a_at) / Fold change /veh CDHR5 (11726645_a_at) / RFU RCAN1 (11760418_a_at) / Fold change /veh RCAN1 (11760418_a_at) / RFU FAM167A (11723789_a_at) / Fold change /veh FAM167A (11723789_a_at) / RFU FAM26E (11764081_at) / Fold change /veh FAM26E (11764081_at) / RFU ISYNA1 (11749810_s_at) / Fold change /veh ISYNA1 (11749810_s_at) / RFU ACY1 (11761880_at) / Fold change /veh ACY1 (11761880_at) / RFU 11764098_at / Fold change /veh 11764098_at / RFU SAMD14 (11745864_x_at) / Fold change /veh SAMD14 (11745864_x_at) / RFU NPB (11741838_a_at) / Fold change /veh NPB (11741838_a_at) / RFU TMPRSS6 (11731388_a_at) / Fold change /veh TMPRSS6 (11731388_a_at) / RFU KRTAP10-2 (11738614_at) / Fold change /veh KRTAP10-2 (11738614_at) / RFU ARHGAP8 /// PRR5-ARHGAP8 (11727945_x_at) / Fold change /veh ARHGAP8 /// PRR5-ARHGAP8 (11727945_x_at) / RFU KRTAP5-7 /// NADSYN1 (11734609_at) / Fold change /veh KRTAP5-7 /// NADSYN1 (11734609_at) / RFU RASL12 (11751679_a_at) / Fold change /veh RASL12 (11751679_a_at) / RFU CDKN2B (11736163_a_at) / Fold change /veh CDKN2B (11736163_a_at) / RFU PRF1 (11729649_at) / Fold change /veh PRF1 (11729649_at) / RFU, ZNF638 /// ZNF638-IT1 / Fold change vs veh, ZNF638 /// ZNF638-IT1 / RFU, PANK3 / Fold change vs veh, PANK3 / RFU, SH3YL1 / Fold change vs veh, SH3YL1 / RFU, ZEB2 / Fold change vs veh, ZEB2 / RFU, NRIP1 / Fold change vs veh, NRIP1 / RFU, PTTG1IP / Fold change vs veh, PTTG1IP / RFU, CAPN2 / Fold change vs veh, CAPN2 / RFU, MED14 / Fold change vs veh, MED14 / RFU, SNORA58 / Fold change vs veh, SNORA58 / RFU, C1orf63 / Fold change vs veh, C1orf63 / RFU, LRRFIP1 / Fold change vs veh, LRRFIP1 / RFU, NDUFAF7 / Fold change vs veh, NDUFAF7 / RFU, SLC12A2 / Fold change vs veh, SLC12A2 / RFU, IBTK / Fold change vs veh, IBTK / RFU, ESF1 / Fold change vs veh, ESF1 / Fold change vs veh, TMEM50B / RFU, TAOK1 / Fold change vs veh, TAOK1 / RFU, ACBD3 / Fold change vs veh, ACBD3 / RFU, TMA16 / Fold change vs veh, TMA16 / RFU, RWDD3 / Fold change vs veh, RWDD3 / RFU, BCAT1 / Fold change vs veh, BCAT1 / RFU, EDEM3 / Fold change vs veh, EDEM3 / RFU, TMEM33 / Fold change vs veh, TMEM33 / RFU, WDR75 / Fold change vs veh, WDR75 / RFU, AHCTF1 / Fold change vs veh, AHCTF1 / RFU, TFRC / Fold change vs veh, TFRC / RFU, ZDHHC17 / Fold change vs veh, ZDHHC17 / RFU, NOM1 / Fold change vs veh, NOM1 / RFU, ARL8B / Fold change vs veh, ARL8B / RFU, ZBTB11 / Fold change vs veh, ZBTB11 / RFU, TAMM41 / Fold change vs veh, TAMM41 / RFU, KIAA1704 /// LOC100996395 / Fold change vs veh, KIAA1704 /// LOC100996395 / RFU, ING1 / Fold change vs veh, ING1 / RFU, TRMT61B / Fold change vs veh, TRMT61B / RFU, FUBP3 / Fold change vs veh, FUBP3 / RFU, TP53 / Fold change vs veh, TP53 / RFU, TNKS2 / Fold change vs veh, TNKS2 / RFU, ZFP14 / Fold change vs veh, ZFP14 / RFU, ACTR2 / Fold change vs veh, ACTR2 / RFU, PPP3R1 / Fold change vs veh, PPP3R1 / RFU, PIK3R1 / Fold change vs veh, PIK3R1 / RFU, HNRNPA1 / Fold change vs veh, HNRNPA1 / RFU, RNF170 / Fold change vs veh, RNF170 / RFU, ZNF28 / Fold change vs veh, ZNF28 / RFU, RNGTT / Fold change vs veh, RNGTT / RFU, OGT / Fold change vs veh, OGT / RFU, BRD1 / Fold change vs veh, BRD1 / RFU, MARS / Fold change vs veh, MARS / RFU, ZNF655 / Fold change vs veh, ZNF655 / RFU, FAHD1 / Fold change vs veh, FAHD1 / RFU, BDP1 / Fold change vs veh, BDP1 / RFU, LRRCC1 / Fold change vs veh, LRRCC1 / RFU, ARID1A / Fold change vs veh, ARID1A / RFU, ZNF146 / Fold change vs veh, ZNF146 / RFU, ZNF330 / Fold change vs veh, ZNF330 / RFU, GPN3 / Fold change vs veh, GPN3 / RFU, C9orf123 / Fold change vs veh, C9orf123 / RFU, N4BP2L2 / Fold change vs veh, N4BP2L2 / RFU, ARFIP1 / Fold change vs veh, ARFIP1 / RFU, FAM179B / Fold change vs veh, FAM179B / RFU, BCL10 / Fold change vs veh, BCL10 / RFU, UHRF1BP1L / Fold change vs veh, UHRF1BP1L / RFU, BET1 / Fold change vs veh, BET1 / RFU, CNOT2 / Fold change vs veh, CNOT2 / RFU, ZNF268 / Fold change vs veh, ZNF268 / Fold change vs veh, ZNF507 / RFU, DGCR2 / Fold change vs veh, DGCR2 / RFU, WDSUB1 / Fold change vs veh, WDSUB1 / Fold change vs veh, HSP90B1 /// MIR3652 / RFU, ADSS / Fold change vs veh, ADSS / RFU, GK / Fold change vs veh, GK / RFU, ZNF148 / Fold change vs veh, ZNF148 / RFU, TAF9 / Fold change vs veh, TAF9 / RFU, SLC1A5 / Fold change vs veh, SLC1A5 / RFU, SLMO2 / Fold change vs veh, SLMO2 / RFU, ABCC4 / Fold change vs veh, ABCC4 / RFU, LOC101060439 /// RAP1B / Fold change vs veh, LOC101060439 /// RAP1B / RFU, RFX7 / Fold change vs veh, RFX7 / RFU, GTPBP10 / Fold change vs veh, GTPBP10 / RFU, CNEP1R1 / Fold change vs veh, CNEP1R1 / RFU, BIVM-ERCC5 /// ERCC5 / Fold change vs veh, BIVM-ERCC5 /// ERCC5 / RFU, ILF3 / Fold change vs veh, ILF3 / RFU 11762660_at / Fold change /veh 11762660_at / RFU VCAN (11757783_s_at) / Fold change /veh VCAN (11757783_s_at) / RFU DDX43 (11728927_at) / Fold change /veh DDX43 (11728927_at) / RFU KRT8 (11758188_x_at) / Fold change /veh KRT8 (11758188_x_at) / RFU NKD1 (11759106_at) / Fold change /veh NKD1 (11759106_at) / RFU SRD5A1 (11742802_a_at) / Fold change /veh SRD5A1 (11742802_a_at) / RFU TPSAB1 /// TPSB2 (11721975_s_at) / Fold change /veh TPSAB1 /// TPSB2 (11721975_s_at) / RFU GSTM3 (11746129_a_at) / Fold change /veh GSTM3 (11746129_a_at) / RFU IL23R (11737362_x_at) / Fold change /veh IL23R (11737362_x_at) / RFU TMEM51 (11727254_a_at) / Fold change /veh TMEM51 (11727254_a_at) / RFU PIWIL2 (11732686_x_at) / Fold change /veh PIWIL2 (11732686_x_at) / RFU ORM1 (11744905_x_at) / Fold change /veh ORM1 (11744905_x_at) / RFU CCDC152 (11743942_at) / Fold change /veh CCDC152 (11743942_at) / RFU ECM1 (11717891_a_at) / Fold change /veh ECM1 (11717891_a_at) / RFU IL23R (11748794_a_at) / Fold change /veh IL23R (11748794_a_at) / RFU TNFAIP8L3 (11732012_x_at) / Fold change /veh TNFAIP8L3 (11732012_x_at) / RFU MBOAT4 (11741988_at) / Fold change /veh MBOAT4 (11741988_at) / RFU 11764193_at / Fold change /veh 11764193_at / RFU TMEM53 (11763286_at) / Fold change /veh TMEM53 (11763286_at) / RFU MAGEB2 (11727129_at) / Fold change /veh MAGEB2 (11727129_at) / RFU TMEM200A (11744735_a_at) / Fold change /veh TMEM200A (11744735_a_at) / RFU CCDC152 (11751479_a_at) / Fold change /veh CCDC152 (11751479_a_at) / RFU FAM211A (11726209_a_at) / Fold change /veh FAM211A (11726209_a_at) / RFU RGS16 (11746705_a_at) / Fold change /veh RGS16 (11746705_a_at) / RFU VCAN (11755009_s_at) / Fold change /veh VCAN (11755009_s_at) / RFU RHOB (11743442_s_at) / Fold change /veh RHOB (11743442_s_at) / RFU RGS16 (11720943_a_at) / Fold change /veh RGS16 (11720943_a_at) / RFU RGS16 (11720944_at) / Fold change /veh RGS16 (11720944_at) / RFU, VPS4B / Fold change vs veh, VPS4B / RFU, CREB1 / Fold change vs veh, CREB1 / RFU, DNAJC13 / Fold change vs veh, DNAJC13 / RFU, GNAQ / Fold change vs veh, GNAQ / RFU, CDK5R1 / Fold change vs veh, CDK5R1 / RFU, ZRANB3 / Fold change vs veh, ZRANB3 / RFU, CUL4A / Fold change vs veh, CUL4A / RFU, CCNY / Fold change vs veh, CCNY / RFU, UFL1 / Fold change vs veh, UFL1 / RFU, COG3 / Fold change vs veh, COG3 / RFU, DIAPH2 / Fold change vs veh, DIAPH2 / RFU, SKA2 / Fold change vs veh, SKA2 / RFU, AFF3 / Fold change vs veh, AFF3 / RFU, LMF1 / Fold change vs veh, LMF1 / RFU, IPO11 / Fold change vs veh, IPO11 / RFU, DFFB / Fold change vs veh, DFFB / RFU, FOXP1 / Fold change vs veh, FOXP1 / RFU, CARD8 / Fold change vs veh, CARD8 / RFU, STRN3 / Fold change vs veh, STRN3 / RFU, ADK / Fold change vs veh, ADK / RFU, RASSF2 / Fold change vs veh, RASSF2 / RFU, WIPF1 / Fold change vs veh, WIPF1 / RFU, LARP1B / Fold change vs veh, LARP1B / RFU, RASA1 / Fold change vs veh, RASA1 / RFU, RB1 / Fold change vs veh, RB1 / RFU, PPFIA1 / Fold change vs veh, PPFIA1 / RFU, MAT2A / Fold change vs veh, MAT2A / RFU, CCT5 / Fold change vs veh, CCT5 / RFU, WDR92 / Fold change vs veh, WDR92 / RFU, CUX1 / Fold change vs veh, CUX1 / RFU, TTC7A / Fold change vs veh, TTC7A / RFU, TMEM135 / Fold change vs veh, TMEM135 / RFU, DEPTOR / Fold change vs veh, DEPTOR / RFU, CPM / Fold change vs veh, CPM / RFU, DNAJB6 / Fold change vs veh, DNAJB6 / RFU, CACNA2D3 / Fold change vs veh, CACNA2D3 / RFU, DTX4 / Fold change vs veh, DTX4 / RFU, TFCP2 / Fold change vs veh, TFCP2 / RFU, GMCL1 /// GMCL1P1 / Fold change vs veh, GMCL1 /// GMCL1P1 / RFU, AEBP2 / Fold change vs veh, AEBP2 / RFU, SNHG1 /// SNORD22 /// SNORD25 /// SNORD26 /// SNORD27 /// SNORD28 /// SNORD29 /// SNORD31 / Fold change vs veh, SNHG1 /// SNORD22 /// SNORD25 /// SNORD26 /// SNORD27 /// SNORD28 /// SNORD29 /// SNORD31 / Fold change (Aza/veh), C12orf56 (ProbeSet 11735607_a_at) / Fold change (ACY-1035/veh), C12orf56 (ProbeSet 11735607_a_at) / Fold change (Aza/veh), FGFR1OP (ProbeSet 11751329_s_at) / Fold change (ACY-1035/veh), FGFR1OP (ProbeSet 11751329_s_at) / Fold change (Aza/veh), VPS36 (ProbeSet 11739960_a_at) / Fold change (ACY-1035/veh), VPS36 (ProbeSet 11739960_a_at) / RFU SYPL1 (11715823_x_at) / Fold change /veh SYPL1 (11715823_x_at) / RFU IGFBP7 (11715501_s_at) / Fold change /veh IGFBP7 (11715501_s_at) / RFU REEP3 (11722064_at) / Fold change /veh REEP3 (11722064_at) / RFU IGLL1 (11728026_x_at) / Fold change /veh IGLL1 (11728026_x_at): dose or concentration left out as unconfirmed
# Conditions: MV-4-11 cells, 48 hours
compound,measurement,value
Nc1ccc(-c2cccs2)cc1NC(=O)c1ccc2c(c1)cc(C1CC1)n2CCN1CCOCC1 [ACY-1035],RFU ORM1 (11744905_x_at),9.21 RFU
